Results from ChEMBL document CHEMBL1138068 (J Med Chem, 2006).

What was measured:
[1] = target: Neuronal acetylcholine receptor subunit alpha-7 (Rattus norvegicus, UniProt Q05941); assay: Displacement of [125I]alpha-BTX from alpha-7 nAChR in rat hippocampus membrane; assay type: cell membranes
Cytochrome P450 2D6 = Cytochrome P450 2D6 (Homo sapiens, UniProt P10635); assay: Inhibition of CYP2D6; assay type: ADME
Chain of Cytochrome P450 2D6 (P10635 whole entry): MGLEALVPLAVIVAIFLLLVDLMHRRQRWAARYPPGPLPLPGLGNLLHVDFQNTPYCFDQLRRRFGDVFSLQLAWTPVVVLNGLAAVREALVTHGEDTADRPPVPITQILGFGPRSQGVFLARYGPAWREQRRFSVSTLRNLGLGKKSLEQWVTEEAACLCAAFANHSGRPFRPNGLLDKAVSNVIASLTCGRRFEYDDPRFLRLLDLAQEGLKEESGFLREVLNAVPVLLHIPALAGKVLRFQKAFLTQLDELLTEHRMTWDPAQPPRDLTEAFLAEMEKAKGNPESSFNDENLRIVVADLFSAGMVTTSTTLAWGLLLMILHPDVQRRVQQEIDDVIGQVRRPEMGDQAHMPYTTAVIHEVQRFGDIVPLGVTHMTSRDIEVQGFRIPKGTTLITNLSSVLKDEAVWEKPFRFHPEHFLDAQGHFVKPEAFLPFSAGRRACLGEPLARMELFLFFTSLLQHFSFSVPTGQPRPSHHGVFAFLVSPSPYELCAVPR

Chain of Neuronal acetylcholine receptor subunit alpha-7 (Q05941 whole entry): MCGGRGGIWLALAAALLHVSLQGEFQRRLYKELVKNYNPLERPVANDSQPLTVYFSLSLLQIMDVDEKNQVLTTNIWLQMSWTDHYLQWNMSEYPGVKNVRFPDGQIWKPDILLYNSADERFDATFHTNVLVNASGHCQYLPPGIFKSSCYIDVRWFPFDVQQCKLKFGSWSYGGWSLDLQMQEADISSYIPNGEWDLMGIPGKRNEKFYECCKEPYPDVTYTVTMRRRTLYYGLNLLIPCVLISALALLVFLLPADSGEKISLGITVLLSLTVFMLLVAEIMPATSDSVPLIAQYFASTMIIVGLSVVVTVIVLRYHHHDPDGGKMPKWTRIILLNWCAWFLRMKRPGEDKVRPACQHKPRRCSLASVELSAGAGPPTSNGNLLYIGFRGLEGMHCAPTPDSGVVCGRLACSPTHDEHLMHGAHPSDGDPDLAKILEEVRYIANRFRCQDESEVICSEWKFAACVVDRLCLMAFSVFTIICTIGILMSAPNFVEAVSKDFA

SMILES	Ki [1] [nM]	IC50 (Cytochrome P450 2D6) [nM]
O=C1O[C@]2(CN3CCC2CC3)CN1c1ccc2ccoc2c1	50	–
Cc1cc2cc(N3C[C@@]4(CN5CCC4CC5)OC3=O)ccc2s1	–	> 30000
O=C1O[C@]2(CN3CCC2CC3)CN1c1ccc2sccc2c1	28	> 30000
O=C1O[C@]2(CN3CCC2CC3)CN1c1ccc2sc(Cl)cc2c1	34	> 30000
Cc1oc2ccc(N3C[C@@]4(CN5CCC4CC5)OC3=O)cc2c1Br	11	–
O=C1O[C@]2(CN3CCC2CC3)CN1c1ccc2c(c1)CCO2	85	–
Cc1cc2cc(N3C[C@@]4(CN5CCC4CC5)OC3=O)ccc2o1	38	> 30000
